Experimental data from PubChem BioAssay (NCI).
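A five-concentration, 48-hour dose response in 96-well plates underlies each endpoint, interpolated linearly between surrounding concentrations. Definition used: TGI = concentration required for complete inhibition of growth.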

Legend:
Assay in all cases: NCI tumour cell line growth inhibition, 48 h
[1] = test system: DLD-1 colon
[2] = test system: HOP-18 NSCLC
[3] = test system: KM20L2 colon
[4] = test system: RXF-631 renal
[5] = test system: SNB-78 CNS
[6] = test system: XF 498 CNS
[7] = test system: DMS 114 small cell lung
[8] = test system: DMS 273 small cell lung
[9] = test system: P388 leukemia
[10] = test system: P388/ADR leukemia
[11] = test system: SN12K1 renal

Row | Compound | TGI [1] [µM] | TGI [2] [µM] | TGI [3] [µM] | TGI [4] [µM] | TGI [5] [µM] | TGI [6] [µM] | TGI [7] [µM] | TGI [8] [µM] | TGI [9] [µM] | TGI [10] [µM] | TGI [11] [µM]
1 | N#Cc1cc([N+](=O)[O-])ccc1NC(=O)C(=O)Nn1c(=S)[nH]c2ccccc2c1=O | > 100 | > 100 | > 100 | > 100 | > 100 | > 100 |  |  |  |  | 
2 | Cn1cnc([N+](=O)[O-])c1Sc1nnc(-c2ccc(Cl)cc2)n1C | 26.3 | 18.1 |  | 30.9 | 31.9 |  | 30.5 | 36 |  |  | 
3 | O=C1C(Nc2ccc(S(=O)(=O)Nc3cnc4ccccc4n3)cc2)=CC(=Nc2ccc(S(=O)(=O)Nc3cnc4ccccc4n3)cc2)c2ccccc21 | 31.8 | 26.9 | 32 |  | 47.3 | 59.2 | 38 | 24.4 |  |  | 
4 | Cc1nc2cc3[nH]c4ccccc4c(=O)c3cc2s1 |  | > 100 | > 100 |  | > 100 | > 100 | > 100 | > 100 |  |  | 
5 | C#CCN1C(=O)CN2C(Cl)(Cl)C2(c2ccccc2)c2cc(Cl)ccc21 (stereo not given) | > 100 | > 100 | > 100 |  |  |  | > 100 | > 100 |  |  | 
6 | CCN(CC)CCNC(=O)C1COc2ccc(-c3cc(=O)c4ccccc4o3)cc2O1 (stereo not given) | > 77.7 | 46.7 | 39 |  | 38.6 | 37.3 |  | 42.3 | 21.7 | 37.1 | 31.1
7 | O=C1C2Cc3ccccc3CN2C(=O)N1CN1CCCCC1 (stereo not given) | > 100 |  | > 100 |  |  | > 100 | > 100 | > 100 |  |  | 
8 | c1ccc(C2SCc3nc4ccccc4n32)cc1 (stereo not given) | > 100 | 51.7 | > 100 |  | > 100 | 95.4 | 63.4 | > 100 |  |  | 
9 | COC(=O)C12CCC(CC1=O)C2(C)C (stereo not given) | > 100 | > 100 | > 100 |  |  | > 100 | > 100 | > 100 |  |  | 
10 | CCOC1=C2N=C(C(CC)c3ccc(F)cc3)N=C2C(=O)c2ccccc21 (stereo not given) | > 30.4 |  | 50.7 |  | 89.8 | 40.1 | > 68.4 | > 72.1 |  |  | 
11 | CCN1CC2(CO)CCC(OC)C34C5CC6C(OC)CC(O)(C5C6OC)C(O)(C(OC)C23)C14 (stereo not given) | > 59.4 | > 375 | > 375 |  | > 375 | > 375 | > 375 | > 375 | > 174 | > 80.8 | > 375
12 | Nc1nc2c(nnn2C2C=C(CO)C(O)C2O)c(=O)[nH]1 (stereo not given) | > 100 | > 100 | > 100 |  | > 100 | > 100 | > 100 | > 100 |  |  | 
13 | CC(C)c1cccc(C(C)C)c1NC(=O)/C(Cc1nc2ccc(Cl)cc2[nH]c1=O)=N\NC(=O)C[N+](C)(C)C | > 100 |  | > 100 | > 100 |  |  | > 100 |  |  |  | 
14 | O=C(C#Cc1ccccc1)Nc1ccccc1CC(c1c[nH]c2ccccc12)c1c[nH]c2ccccc12 | > 100 |  |  | 74.6 | 97.6 | 70 |  | 38.8 |  |  | 
15 | C=C1C(=O)OC2C=C(C)CC3C=C(CCC=C(C)CCC12)C(=O)O3 (stereo not given) | 137 | 78.5 | 119 |  | 222 |  | 151 | 145 | 85.1 | 93.2 | 123
16 | O=C1C2=C(c3ccccc31)C(c1ccc([N+](=O)[O-])cc1)NC(=S)N2 (stereo not given) | > 100 |  | > 100 | > 100 |  | > 100 | > 100 | > 100 |  |  | 
17 | CC(C)C(N=C1CC2CCC1(C(=O)Nc1ccccc1O)C2(C)C)c1ccccc1 (stereo not given) | > 10 | > 10 | > 10 | > 10 | > 10 | > 10 | > 10 | > 10 |  |  | 
18 | O=C(Cn1cc(I)c(C(=O)NCC(O)CO)n1)NCC(O)CO (stereo not given) | > 100 | > 100 | > 100 |  | > 100 | > 100 | > 100 | > 100 |  |  | 
19 | COc1ccc(/C=N/NC(=O)NCCNCCO)cc1 | > 100 | > 100 | > 100 |  | > 100 |  | > 100 | > 100 |  |  | 
20 | CC(=O)Nc1ccc(S(=O)(=O)Nc2cnc3ccccc3n2)cc1 | > 100 | > 100 | > 100 |  |  | > 100 | > 100 | > 100 |  |  | 
21 | C#CCN(Cc1ccc2nc(-c3ccccc3)c(Cl)nc2c1)c1ccc(Cl)c(Cl)c1 | > 100 | > 100 | > 100 |  | > 100 | > 100 | > 100 | > 100 |  |  | 
22 | Nc1ccc2ncc(NCc3ccc(F)cc3)nc2c1 | > 100 | > 100 | > 100 |  | > 100 | 86.1 | > 100 | > 100 |  |  | 
